# Source: US11807852B2, “Compositions and methods for reactivating latent immunodeficiency virus” (The J. David Gladstone Institutes, a testamentary trust …, priority 2014, dated 2023)
# Read-outs that look alike come from different tables or passages of the source.
# Key:
# [1] = system: J-Lat A72 cell line (LTR-GFP); settings: A72 J-Lat cells; for activation of GFP expression / reactivation of the HIV-LTR: single agent
# Method: J-Lat (clones A2 and A72) cell lines were cultured as described in Jordan et al., EMBO J. 2003 Apr. 15:22(8):1868-77. Human αCD3/αCD28 beads (Life Technologies) were used at a concentration of 1 bead/cell ratio. JQ1 (Sigma-Aldrich) was used at a concentration of 0.1-10 μM. Ingenol 3,20-dibenzoate (Sigma-Aldrich) was used at concentrations of 5-200 nM, and SAHA (Sigma-Aldrich) was used at concentrations of 110 nM, 330 nM, or 1 μM.
# HEK293T cells were obtained from the American Type Culture Collection. J-Lat (clones A2, A72, and 5A8) cell lines were described (Chan et al., 2013; Jordan et al., 2003). HEK293T cells were cultured in DMEM supplemented with 10% FBS, 1% L-glutamine and 1% penicillin-streptomycin (Life Technologies). J-Lat cells were cultured in RPMI supplemented with 10% FBS, 1% L-glutamine and 1% penicillin-streptomycin (Life Technologies). […] TNFα (Sigma-Aldrich) was used at 0.5-10 ng/ml. Human αCD3/αCD28 Dynabeads (Invitrogen) were used at a 1 bead/cell ratio. JQ1 (Cayman Chemical) was used at 0.1-10 μM. Ingenol 3,20-dibenzoate (Santa Cruz Biotechnology) was used at 5-200 nM, and SAHA (Merck) was used at 110 nM, 330 nM, or 1 μM. Phorbol 12-myristate 13-acetate (PMA) (Sigma) was used at 10 nM and ionomycin (Sigma) was used at a concentration of 500 nM. UNC926 (Tocris Bioscience) was used at a concentration of 10 nM-100 μM. AZ505. AZ506, and AZ391 were used at a concentration of 10 nM-10 μM.
# ShRNA-expressing lentiviral vectors were purchased from Sigma-Aldrich. The pLKO.1 vector containing a scrambled shRNA was used as control. […] J-Lat 5A8, A72 and A2 cells were spininfected with virus (1 ng of p24 per 10^6 cells) containing shRNAs against KMTs or nontargeting control shRNAs and were selected with puronycin (2 μg/ml: Sigma). After 7 days of selection, cells were treated with the indicated concentration of drugs. The percentage of GFP^+ cells was determined after 18 h using a MACSQuant VYB FACS analyzer (Miltenyi Biotech GmbH). Cell viability was monitored by forward-and-side scatter analysis. Analysis was conducted on 3×10,000 live cells per condition. Data were analyzed using FlowJo 9.5 (Tree Star).
# [2] = cited from earlier work
# [3] = system: latent HIV-1 in CD4+ T cells from HIV-1-infected individuals; experiment: Intracellular HIV-1 mRNA (ddPCR) in CD4+ T cells from HIV-1-infected individuals treated ex vivo; format: cell-based
# Excerpt: Four aviremic HIV-1-infected individuals were recruited from the SCOPE cohorts at the University of California. San Francisco. Table 2 details the characteristics of the study participants.
# Peripheral blood mononuclear cells (PBMCs) from whole blood or continuous flow centrifugation leukapheresis product were purified using density centrifugation on a Ficoll-Hypaque gradient. Resting CD4^+ lymphocytes were enriched by negative depletion with an EasySepHuman CD4^+ T Cell Isolation Kit (Stemcell). Cells were cultured in RPMI medium supplemented with 10% fetal bovine serum, penicillin/streptomycin and 5 μM saquinavir. Five million resting CD4′ lymphocytes were stimulated with latency-reversing agents (LRAs) at the indicated concentrations (20-500 nM AZ391, 100 nM JQ1, 25 μl/1×10^6 T cells αCD3/αCD28 Dynabeads (Life Technologies) for 48 hours. After LRA treatment, cells were collected, lysed and total RNA was isolated with an RNeasy kit (Quiagen). A Superscript III One-Step RT-PCR system (Life Technologies) was used to generate and pre-amplify cell-associated viral mRNA. Reaction mixes contained 15 μl of a PCR mix containing reaction mix, Superscript III, primers (900 nM final concentration) and 10 μl purified RNA. Pre-amplification was carried out using the following steps: reverse transcription at 50° C. for 30 min, denaturation at 95° C. for 2 min, 10 cycles of amplification (94° C. 15 s, 55° C. 30 s, 68° C. 5 min) on a GeneAmp PCR system 9700 (Thermo Fisher). Subsequently, droplet digital PCR (ddPCR) was applied to quantify pre-amplified cDNA. Each 25 μl ddPCR mix comprised the ddPCR Probe Supermix (no dUTP), 900 nM primers, 250 nM probe, and 4 μl cDNA. The following cycling conditions were used: 10 minutes at 95° C. […] Finally, samples were amplified on a BioRad C1000 Thermocycler and analyzed using a BioRad QX100 ddPCR Reader. […]
# Next, AZ391 was tested in CD4^+ T cells from HIV-1-infected individuals on suppressive ART. […] After 48 hours, levels of intracellular HIV-1 mRNA were measured by droplet digital RT-PCR using a previously published primer/probe set (Laird et al., 2015). […]
compound,measurement,setting,value
N#Cc1cc(C(=O)NCCCN2CCCC2)cc(-c2ccccc2N2CCN(CCc3c[nH]c4ccccc34)CC2)c1 [AZ391],"reactivation of HIV-LTR, combination effect",[1]; co-treatment with JQ1,more than additive effects
same,"reactivation of HIV-LTR, combination effect",[1]; co-treatment with SAHA,less
same,"reactivation of HIV-LTR, combination effect","[1]; co-treatment with ingenol 3,20-dibenzoate",practically no combination effect
same,GFP+ cells,[1]; high concentrations (5 and 10 μM),up to 30%
same,activation of GFP expression / reactivation of the HIV-LTR,[1],activated GFP expression at high concentrations
same,activation of GFP expression / reactivation of the HIV-LTR,[1]; listed as X2,the same effect was observed in A72 cells
same,cell permeability,[2],cell-permeable
same,mean increase of intracellular HIV-1 mRNA levels,"[3]; 500 nM, 48 hours, three additional donors",1.5-10 fold
same,"intracellular HIV-1 mRNA, combination effect",[3]; combination with JQ1,no additive or synergistic effects
same,intracellular HIV-1 mRNA levels,"[3]; increasing concentrations (maximal 500 nM), 48 hours, one individual",increased intracellular HIV-1 mRNA levels in a dose-dependent manner
